Source: BindingDB's records for doi:10.1021/jm00214a010 (1977)

Biological target: T1, Aminopeptidase B (Rattus norvegicus, UniProt O09175)
T1 sequence (O09175 whole entry): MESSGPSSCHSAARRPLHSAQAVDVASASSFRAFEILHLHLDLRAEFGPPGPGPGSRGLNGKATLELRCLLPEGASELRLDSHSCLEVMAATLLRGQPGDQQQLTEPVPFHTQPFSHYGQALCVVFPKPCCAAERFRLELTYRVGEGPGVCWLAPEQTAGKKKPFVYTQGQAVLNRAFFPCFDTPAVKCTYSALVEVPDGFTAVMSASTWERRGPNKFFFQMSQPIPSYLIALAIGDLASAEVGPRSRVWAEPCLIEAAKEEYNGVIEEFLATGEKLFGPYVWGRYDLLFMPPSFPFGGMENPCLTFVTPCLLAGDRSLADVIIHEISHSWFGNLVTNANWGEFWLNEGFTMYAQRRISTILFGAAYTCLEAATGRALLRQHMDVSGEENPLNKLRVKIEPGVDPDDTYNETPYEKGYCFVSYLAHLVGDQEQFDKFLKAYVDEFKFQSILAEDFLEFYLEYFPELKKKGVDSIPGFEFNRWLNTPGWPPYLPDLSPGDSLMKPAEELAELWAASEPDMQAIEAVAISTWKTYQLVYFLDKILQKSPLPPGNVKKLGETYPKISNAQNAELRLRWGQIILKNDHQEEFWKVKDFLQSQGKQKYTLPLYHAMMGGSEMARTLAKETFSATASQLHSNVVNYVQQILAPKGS
Test: Inhibition of rat liver aminopeptidase B using 0.2 mM […] by colorimetry

With `CC(C)CCNC(=O)[C@@H](O)[C@H](N)Cc1ccccc1` the IC50 was 640 µM.
